Experiments:
[1] = target: T1, P2X7 (Homo sapiens, UniProt Q99572); conditions: human leukaemic lymphocytes, cited from earlier work; for inhibition of ATP-induced Na+ fluxes: 40 μM compound
T1 sequence (Q99572 1-595): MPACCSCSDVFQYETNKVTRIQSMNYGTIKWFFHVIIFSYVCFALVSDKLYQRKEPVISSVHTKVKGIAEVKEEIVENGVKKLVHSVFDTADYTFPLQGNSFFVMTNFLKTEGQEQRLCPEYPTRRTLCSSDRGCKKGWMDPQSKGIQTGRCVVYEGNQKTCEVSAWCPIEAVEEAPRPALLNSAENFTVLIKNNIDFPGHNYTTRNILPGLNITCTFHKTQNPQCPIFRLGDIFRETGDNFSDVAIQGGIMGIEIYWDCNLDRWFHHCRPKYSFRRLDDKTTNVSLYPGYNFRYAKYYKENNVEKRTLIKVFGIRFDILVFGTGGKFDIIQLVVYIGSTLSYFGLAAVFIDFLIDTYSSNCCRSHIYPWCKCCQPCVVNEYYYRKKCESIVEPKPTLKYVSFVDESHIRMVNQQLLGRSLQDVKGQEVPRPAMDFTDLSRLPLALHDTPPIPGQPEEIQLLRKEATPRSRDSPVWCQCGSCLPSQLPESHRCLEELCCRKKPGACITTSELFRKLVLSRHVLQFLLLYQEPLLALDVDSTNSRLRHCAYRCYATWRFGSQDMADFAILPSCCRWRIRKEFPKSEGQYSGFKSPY

[2] = system: human (h) P2X7; set-up: method as in PMID 9720806; conditions: 10 μM compound, HEK-hP2X7 cells; cited from earlier work
[3] = system: mouse (m) P2X7; set-up: method as in PMID 7514597; conditions: 40 μM compound, Xenopus oocytes with mP2X7 mRNA; cited from earlier work
[4] = system: mP2X7; set-up: method as in PMID 11181928; conditions: cited from earlier work
[5] = target: T2, hP2X7 (Homo sapiens, UniProt Q99572); set-up: method as in PMID 11181928; conditions: 16 μM BzATP; cited from earlier work
T2 construct: expressed in transfected cells; host or cells: HEK293 cells, stably transfected (HEK-hP2X7)
T2 sequence (Q99572 1-595): T1 sequence (Q99572 1-595)

[6] = target: T1, P2X7; set-up: endogenous in cells; conditions: human leukemic B cells, cited from earlier work
[7] = system: hP2X7-mediated IL-1β release; experiment: Whole blood IL-1β release assay; assay type: cell-based; conditions: 30 μM compound, 6 mM ATP, LPS-primed human whole blood
Procedure: Whole blood IL-1β release assays were conducted as described. Briefly, whole human blood was mixed with an equal volume of serum-free RPMI-1640 medium containing LPS (200 ng/mL), added to a flat-bottom 96-well plate and incubated (37 °C, 95% air/5% CO2, 105 min). Compounds (30 μM) or vehicle (DMSO) were added to respective wells and incubated (37 °C, 95% air/5% CO2, 15 min). […] Plates were centrifuged (700× g, 10 min) with the resulting supernatants collected and stored at −80 °C. hIL-1β concentrations were determined using a Human IL-1β ELISA (Thermo Fisher Scientific) according to the manufacturer’s instructions. Samples above the detection limit (7500 pg/mL) were set at 7500 pg/mL for statistical analysis.

[8] = target: T1, P2X7; experiment: ATP-induced YO-PRO-1 uptake into human T cells (PBMCs); assay type: cell-based; set-up: Human peripheral blood mononuclear cells (PBMCs) were pre-incubated with DMSO (vehicle) or 30 μM 6-FPHMA; endogenous in cells; host or cells: cryopreserved human PBMCs (CD3+, CD4+, CD8+ T cells), four donors; conditions: 30 μM compound, 1 mM ATP
Procedure: ATP-mediated uptake assays were conducted as described with either ethidium bromide or YO-PRO-1 iodide. Briefly, RPMI8226, HEK-hP2X7, HEK-mP2X7, HEK-cP2X7 or cryopreserved human peripheral blood mononuclear cells (PBMCs) were washed thrice with LDM (300× g, 5 min), resuspended in LDM and 1 × 10^6 cells were added to individual tubes. Cells were pre-incubated in the absence of compound (37 °C, 5 min) or in the presence of compound or vehicle (DMSO) (37 °C, 15 min) as indicated. […] An equal volume of ice-cold Mg^2+ stop solution was added and cells centrifuged (300× g, 5 min). Cells were washed twice in LDM (300× g, 5 min), resuspended and data were collected with an LSR Fortessa X-20 flow cytometer. MFI of ethidium^+ or YO-PRO-1^2+ was determined using FlowJo.

[9] = target: T1, P2X7; experiment: Plate-based flow cytometric YO-PRO-1 dye uptake compound screen in RPMI8226 cells; assay type: cell-based; set-up: endogenous in cells; host or cells: RPMI8226 cells; conditions: 5 μM compound, 250 μM ATP; also previous studies
Procedure: RPMI8226 cells were washed thrice with low-divalent medium (LDM) (145 mM NaCl, 2 mM KCl, 0.2 mM CaCl2, 13 mM D-glucose and 10 mM HEPES, pH 7.5) and 1 × 10^5 cells were added to each well of a 96-well flat-bottomed plate. Amiloride derivatives, at 10 μM (final concentration 5 μM) or vehicle (DMSO) were added, and plates pre-incubated (37 °C, 15 min). […] Wells were washed twice with LDM (300× g, 5 min) and cells were resuspended in LDM. Data was acquired with an Attune NxT Flow Cytometer an Autosampler (Thermo Fisher Scientific). Mean fluorescent intensity (MFI) of YO-PRO-1^+ uptake was determined using FlowJo.

[10] = target: T3, endogenous hP2X7 (Homo sapiens, UniProt Q99572); experiment: ATP-induced ethidium+ uptake in RPMI8226 multiple myeloma cells (flow cytometry); assay type: cell-based; conditions: any concentration up to 30 μM, 300 μM ATP, RPMI8226 cells
T3 construct: endogenous in cells; host or cells: RPMI8226 cells
T3 sequence (Q99572 1-595): T1 sequence (Q99572 1-595)

[11] = target: T2, hP2X7; experiment: ATP-induced ethidium+ uptake in stably transfected HEK-hP2X7 cells (flow cytometry); assay type: cell-based; conditions: any concentration up to 30 μM, 450 μM ATP, HEK-hP2X7 cells

NC(N)=NC(=O)c1nc(Cl)c(N2CCCCCC2)nc1N [HMA, 5-(N,N-hexamethylene) amiloride]
inhibition of ATP-induced Na+ fluxes [1]: 95%
inhibition of BzATP-induced inward currents [2]: 30%
inhibition of ATP- and BzATP-induced currents [3]: partially inhibited
effect on mP2X7-mediated dye uptake at low BzATP ([4]; 16 μM BzATP): potentiated
potency of inhibition of BzATP-induced uptake, mP2X7 compared to hP2X7 ([4]; HEK293 cells): reduced potency
potentiation of dye uptake at low BzATP, hP2X7 [5]: not observed
inhibition of ATP-induced ethidium+ uptake ([6]; 20 μM compound): 50%
concentration required for complete inhibition of ATP-induced ethidium+ uptake [6]: > 100 µM

Cc1nc(N=Nc2ccc(S(=O)(=O)O)cc2S(=O)(=O)O)c(COP(=O)(O)O)c(C=O)c1O [PPADS, Pyridoxalphosphate-6-azophenyl-2′,4′-disulfonic acid]
reduction of ATP-induced IL-1β compared to vehicle control [7]: did not alter
reduction of ATP-induced YO-PRO-1 uptake into CD3+ T cells [8]: 85 ± 9%
reduction of ATP-induced YO-PRO-1 uptake into CD4+ T cells [8]: 85 ± 11%
reduction of ATP-induced YO-PRO-1 uptake into CD8+ T cells [8]: 86 ± 7%

N=C(N)NC(=O)c1nc(Cl)c(N)nc1N [Amiloride]
inhibition of ATP-mediated Na+ fluxes ([1]; 1 mM compound): 50%
block of hP2X7 in screening assay [9]: blocks hP2X7 relatively poorly

N=C(N)NC(=O)c1nc(-c2cc3cnccc3o2)c(N)nc1N [6-FPA, 6-furopyridine-substituted amiloride]
inhibition of hP2X7-mediated dye uptake [10]: did not inhibit
inhibition of hP2X7-mediated dye uptake [11]: did not inhibit

CCOc1ccc(Nc2ccc(/C(=C3C=C/C(=[N+](/CC)Cc4cccc(S(=O)(=O)[O-])c4)C=C/3C)c3ccc(N(CC)Cc4cccc(S(=O)(=O)O)c4)cc3C)cc2)cc1 [BBG, Brilliant Blue G]
reduction of ATP-induced IL-1β compared to vehicle control [7]: did not alter
reduction of ATP-induced YO-PRO-1 uptake into CD3+ T cells [8]: 90 ± 8%
reduction of ATP-induced YO-PRO-1 uptake into CD4+ T cells [8]: 83 ± 17%
reduction of ATP-induced YO-PRO-1 uptake into CD8+ T cells [8]: 72 ± 22%

CCN(c1nc(N)c(C(=O)N=C(N)N)nc1Cl)C(C)C [EIPA, 5-(N-ethyl-N-isopropyl) amiloride]
inhibition of ATP-induced Na+ fluxes [1]: 72%

O=C(NCC1(N2CCN(c3ccccc3)CC2)CCOCC1)c1cccnc1Sc1ccccc1 [JNJ-47965567]
reduction of ATP-induced IL-1β compared to vehicle control [7]: 98 ± 1%
reduction of ATP-induced YO-PRO-1 uptake into CD3+ T cells [8]: 79 ± 14%
reduction of ATP-induced YO-PRO-1 uptake into CD4+ T cells [8]: 78 ± 15%
reduction of ATP-induced YO-PRO-1 uptake into CD8+ T cells [8]: 80 ± 11%
